Where two headings read alike, the source gives them in different places. Where a SMILES comes first, the peptide text is derived from it. The star is where a group is joined. Myristoyl = CCCCCCCCCCCCCC(=O)*
What was measured:
Ceramide 2 = Ceramide 2 immunolabeling in keratinocytes; type: cell-based, human; settings: for Ceramide 2 % variation: immunolabeling, human keratinocytes
Description: (§1) Human keratinocytes are brought to just confluence in KSFMc medium. The contact with the actives and therefore their evaluation is then done in KSFMc medium alone or with calcium (0.8 mm)*. Visual evaluation of differentiation takes place after several days of contact (2, 4, 8 days/3, 5 and 7 for example). * Calcium differentiation allows the creation of link structure between the cells which leads to a better attachment of the basal layers.
(§2) On the same cultures as those presented before, immunolabeling of filaggrin 1 and ceramides are realised on layers fixed with specific antibodies. Quantification by image analysis is used to estimate the synthesis of these targets in keratinocytes. A counter-colouration of the nucleus using Hoechst dye is used to weight the obtained data.

Collagen IV = experiment: ELISA assay of collagen IV synthesis in normal human fibroblasts; type: cell-based; settings: NHF, 72 h
Protocol: (§3) Normal human fibroblasts (NHF) in culture are contacted with the products to be tested or their excipient (negative control) for 72 h. After the contact, the culture supernatants are removed and the synthesis of dermal macromolecules are estimated by ELISA assays. An estimation of cell viability is performed by Hoechst assay and used to weight the obtained data.

filaggrin 1 = experiment: Filaggrin 1 immunolabeling in keratinocytes; type: cell-based, human; settings: for Filagrin 1 % variation: immunolabeling, human keratinocytes
Description: as §1, §2

Collagen I [1] = experiment: ELISA assay of collagen I synthesis in normal human fibroblasts; type: cell-based; settings: NHF, 72 h
Protocol: as §3

neutral lipids = experiment: Marking of neutral lipids with red oil in keratinocytes; type: cell-based, human; settings: for Neutral lipids % variation: red oil marking, human keratinocytes
Description: as §1
On the same cultures as presented before, a marking of neutral lipids with red oil is realised on the fixed layers. Quantification by image analysis is used to estimate lipid synthesis in keratinocytes. A counter-colouration of the nucleus using Hoechst dye is used to weight the obtained data.

Laminin = experiment: ELISA assay of laminin synthesis in normal human fibroblasts; type: cell-based; settings: NHF, 72 h
Protocol: as §3

Fibronectin = experiment: ELISA assay of fibronectin synthesis in normal human fibroblasts; type: cell-based; settings: NHF, 72 h
Protocol: as §3

Collagen I [2] = experiment: Immunofluorescence dosage of collagen I in normal human fibroblasts; type: cell-based; settings: NHF, 6 days
Protocol: (§4) Normal human fibroblasts (NHF) are cultured for 24 h. The cells are contacted or not with the products to be tested or their excipient at various concentrations for 6 days for the collagen I or 14 days for elastin (DMEMc 5% FCS). The synthesis of collagen I and elastin produced by the cells in the form of extracellular matrix is then quantified by immuno-marking on the fixed layers. A counting of the nuclei labeled with Hoechst is performed in parallel in order to have an estimate of the viability and in order to weight the data.

Elastin [3] = experiment: ELISA assay of elastin synthesis in normal human fibroblasts; type: cell-based; settings: NHF, 72 h
Protocol: as §3

Elastin [4] = experiment: Immunofluorescence dosage of elastin in normal human fibroblasts; type: cell-based; settings: NHF, 14 days
Protocol: as §4

collagen = settings: cited from earlier work
[5] = at the level of the differentiation networks

Molecule: CCCCCCCCCCCCCC(=O)N1CCC[C@H]1C(=O)N1CCC[C@H]1C(=O)N[C@@H](CC(C)C)C(=O)O [Myr-PPL-OH, myristoyl-prolyl-prolyl-leucine] (Myristoyl-Pro-Pro-Leu-OH)
- Ceramide 2 % variation (Ceramide 2; 2 ppm): +137 (nsd) %
- Ceramide 2 % variation (Ceramide 2; 4 ppm): +240 (p < 0.01) %
- Ceramide 2 % variation (Ceramide 2; 6 ppm): +268 (p < 0.01) %
- ceramides in the human keratinocytes (Ceramide 2; [5]): increases
- Collagen IV % change/control (Collagen IV; 1 ppm): +38%
- Collagen IV % change/control (Collagen IV; 3 ppm): +51%
- Collagen IV % change/control (Collagen IV; 5 ppm): +83%
- Collagen IV % change/control (Collagen IV; 7 ppm): +159%
- Filagrin 1 % variation (filaggrin 1; 2 ppm): +564 (p < 0.01) %
- Filagrin 1 % variation (filaggrin 1; 4 ppm): +840 (p < 0.01) %
- Filagrin 1 % variation (filaggrin 1; 6 ppm): +172 (p < 0.01) %
- filaggrin 1 in the human keratinocytes (filaggrin 1; [5]): increases
- Collagen I % change/control (Collagen I [1]; 1 ppm): +34%
- Collagen I % change/control (Collagen I [1]; 3 ppm): +59%
- Collagen I % change/control (Collagen I [1]; 5 ppm): +87%
- Neutral lipids % variation (neutral lipids; 4 ppm): +394 (p < 0.01) %
- Neutral lipids % variation (neutral lipids; 6 ppm): +570 (p < 0.01) %
- neutral lipids in the human keratinocytes (neutral lipids; [5]): increases
- Laminin % change/control (Laminin; 1 ppm): +29%
- Laminin % change/control (Laminin; 3 ppm): +83%
- Laminin % change/control (Laminin; 5 ppm): +53%
- Laminin % change/control (Laminin; 7 ppm): +41%
- Fibronectin % change/control (Fibronectin; 3 ppm): +73%
- Fibronectin % change/control (Fibronectin; 5 ppm): +41%
- Fibronectin % change/control (Fibronectin; 7 ppm): +66%
- Collagen I % change/control (Collagen I [2]; 3 ppm): +68%
- Collagen I % change/control (Collagen I [2]; 7 ppm): +95%
- Elastin % change/control (Elastin [3]; 5 ppm): +86%
- Elastin % change/control (Elastin [3]; 7 ppm): +137%
- Elastin % change/control (Elastin [4]; 2 ppm): +183%
- Elastin % change/control (Elastin [4]; 3 ppm): +259%
- Elastin % change/control (Elastin [4]; 7 ppm): +145%

Molecule: Asn-Ile-Pro-Pro-Leu (NIPPL) [pentapeptide of WO 2010/071132 derived from fermented milk]
- collagen production by fibroblastes with regard to the control (collagen; concentration of about 55 ppm): about +30%

Molecule: Ile-Pro-Pro-Leu (IPPL) [tetrapeptide of WO 2010/071132 derived from fermented milk]
- collagen production by fibroblastes with regard to the control (collagen; concentration of about 44 ppm): about +10%
